Measurements: patent US9539256B2 (THE BOARD OF REGENTS OF THE UNIVERSITY OF TEXAS SYSTEM, priority 2012, dated 2017)
Entries after “also recorded” stand apart in the source; their conditions may differ.

Key:
[1] = biological target: T1, EPAC1 (Homo sapiens, UniProt O95398); assay: Phosphorylation of Akt in HEK293/EPAC1 cells; type: cell-based; conditions: 10 μM for 5 min before 007-AM
T1 sequence (O95398 1-923): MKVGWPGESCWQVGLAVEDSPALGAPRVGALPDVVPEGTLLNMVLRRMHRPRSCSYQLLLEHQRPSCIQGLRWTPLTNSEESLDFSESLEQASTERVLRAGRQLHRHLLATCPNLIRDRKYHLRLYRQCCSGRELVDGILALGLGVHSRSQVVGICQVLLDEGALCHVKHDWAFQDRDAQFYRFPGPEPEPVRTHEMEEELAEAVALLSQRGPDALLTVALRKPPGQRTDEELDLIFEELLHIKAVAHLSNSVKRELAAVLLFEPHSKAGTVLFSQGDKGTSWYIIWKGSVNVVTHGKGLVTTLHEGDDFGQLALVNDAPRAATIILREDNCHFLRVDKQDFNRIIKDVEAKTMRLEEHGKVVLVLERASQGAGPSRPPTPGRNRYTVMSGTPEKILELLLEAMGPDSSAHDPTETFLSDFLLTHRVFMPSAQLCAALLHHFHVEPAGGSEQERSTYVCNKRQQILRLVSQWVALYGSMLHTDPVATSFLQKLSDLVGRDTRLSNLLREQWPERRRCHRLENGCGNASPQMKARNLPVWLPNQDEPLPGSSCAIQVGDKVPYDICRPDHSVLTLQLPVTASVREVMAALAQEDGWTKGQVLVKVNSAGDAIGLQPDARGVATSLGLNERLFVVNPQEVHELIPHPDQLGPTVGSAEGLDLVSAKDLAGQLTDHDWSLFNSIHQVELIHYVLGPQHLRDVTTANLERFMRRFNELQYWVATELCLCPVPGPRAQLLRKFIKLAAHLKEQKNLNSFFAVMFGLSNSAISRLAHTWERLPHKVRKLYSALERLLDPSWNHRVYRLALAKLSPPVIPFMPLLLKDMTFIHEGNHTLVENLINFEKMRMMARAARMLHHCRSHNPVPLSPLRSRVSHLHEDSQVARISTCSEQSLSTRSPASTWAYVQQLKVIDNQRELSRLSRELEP
Description: FIG. 10. Effect of ESI-09 on EPAC-mediated PKB phosphorylation in HEK293/EPAC1, HEK293/EPAC2, and human vascular smooth muscle (hVSMC) cells. Serum-starved HEK293/EPAC1, HEK293/EPAC2, and hVSMC cells with or without pretreatment of […] ESI-09 were stimulated with 10 μM 007-AM. Cell lysates were subjected to Western blot analysis as described under “Experimental Procedures” using anti-phospho-Ser473-specific (PKB-P473) and anti-phospho-Thr308-specific (PKB-P308) PKB antibodies.
Cellular proteins from cell lysates treated with various reagents were separated by SDS-PAGE and transferred to polyvinylidene difluoride membrane. The levels of Akt activation were probed by immuno-blotting analyses using anti-phosphate T308 PKB antibodies (1:1000) and anti-phosphate S473 PKB antibodies (1:1000). At least three independent experiments were performed for each Western blot.

[2] = test system: R. australia; assay: Lethal-dose R. australia infection of mice; type: in vivo; conditions: WT C57BL/6 mice, 10 mg/kg, IP daily
Description: FIG. 21. ESI-09 treatment protects mice from lethal-dose infection of R. australia. WT C57BL/6 mice were treated with vehicle or ESI-09 (10 mg/kg, IP) daily. Five days after the treatment, mice were challenged with lethal dose of R. australia and continued ESI-09 daily treatment. Severity of illness and survival rate were monitored.
To test if EPAC inhibitors are capable of protecting mice from lethal-dose infection of R. australia. WT C57BL/6 mice were treated with vehicle or ESI-09 (10 mg/kg, IP) daily. Five days after the treatment, mice were challenged with lethal dose of R. australia and continued ESI-09 daily treatment.

[3] = test system: AsPC-1, BxPC-3, and PANC-1; assay: Wound healing assay; type: cell-based; conditions: 10.0 μM; AsPC-1, BxPC-3, PANC-1
Description: Cells were grown to 95-100% confluency before a scratch wound was made. The medium was changed to RPMI 10% FBS containing 10.0 μM ESI-09. The cells were then incubated at 37° C. in 5% CO2. The wound was imaged at 0 hours and 22 hours after changing the medium. Healing rate was determined by calculating the percentage of wound closure normalized to a 1.0 mm wound according to the following equation: % wound closure=(distance between the edges of the wound before treatment with ES-09−distance between the edges of the wound 22 hours post treatment with ES-09)/1.0×100.

[4] = biological target: T2, EPAC2 (Mus musculus, UniProt Q9EQZ6); assay: Rap1-GDP exchange (GEF) activity assay, EPAC2
T2 sequence (Q9EQZ6 1-1011): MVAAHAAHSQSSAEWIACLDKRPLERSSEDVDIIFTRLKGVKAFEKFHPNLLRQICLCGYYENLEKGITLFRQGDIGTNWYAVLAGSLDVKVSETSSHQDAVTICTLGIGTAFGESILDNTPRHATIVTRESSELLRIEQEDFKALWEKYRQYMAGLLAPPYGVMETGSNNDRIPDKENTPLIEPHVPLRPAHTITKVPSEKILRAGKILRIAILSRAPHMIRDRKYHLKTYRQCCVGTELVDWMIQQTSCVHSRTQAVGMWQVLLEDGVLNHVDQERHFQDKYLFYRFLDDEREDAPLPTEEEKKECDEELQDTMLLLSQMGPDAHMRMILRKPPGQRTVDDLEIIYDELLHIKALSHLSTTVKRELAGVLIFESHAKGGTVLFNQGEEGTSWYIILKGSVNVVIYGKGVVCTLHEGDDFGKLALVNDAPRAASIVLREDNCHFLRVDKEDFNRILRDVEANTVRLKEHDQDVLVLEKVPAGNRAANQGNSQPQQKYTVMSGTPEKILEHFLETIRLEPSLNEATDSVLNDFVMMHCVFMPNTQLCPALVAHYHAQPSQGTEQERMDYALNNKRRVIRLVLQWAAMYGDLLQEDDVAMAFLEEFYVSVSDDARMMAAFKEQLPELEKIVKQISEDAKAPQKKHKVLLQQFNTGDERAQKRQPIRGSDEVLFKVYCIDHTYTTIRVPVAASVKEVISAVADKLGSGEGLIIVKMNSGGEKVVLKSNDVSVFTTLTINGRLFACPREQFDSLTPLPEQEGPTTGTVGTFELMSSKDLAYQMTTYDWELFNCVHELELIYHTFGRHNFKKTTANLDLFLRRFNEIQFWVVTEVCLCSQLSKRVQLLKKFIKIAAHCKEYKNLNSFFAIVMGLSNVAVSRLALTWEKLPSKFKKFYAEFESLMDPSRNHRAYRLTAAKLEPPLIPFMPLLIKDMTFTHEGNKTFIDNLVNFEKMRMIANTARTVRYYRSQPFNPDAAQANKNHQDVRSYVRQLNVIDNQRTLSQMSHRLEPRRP
Description: Exchange of Mant-GDP by GDP was measured as a decrease in fluorescence intensity over time using a FluoroMax-3 spectrofluorometer with excitation/emission wavelengths set at 366/450 nm. Typically, decay in the fluorescence intensity was recorded over a time course of 6000 s with data points taken every 60 s.

CC(C)(C)c1cc(C(=O)C(C#N)=NNc2cccc(Cl)c2)no1 [ESI-09, 3-(5-Tert-Butyl-Isoxazol-3-Yl)-2-[(3-Chlorophenyl)-Hydrazono]-3-Oxo-Propionitrile]
EPAC1-mediated Akt phosphorylation (T308 and S473) [1]: completely blocked
protection of R. australia infection [2]: striking protection; also recorded: protects
treatment group showing sign of sickness [2]: 10%
cell migration, wound healing [3]: significant decrease; also recorded: significantly (P<0.05) decreased
IC50 [4]: 1.4 ± 0.1 µM
